How the values were obtained:
[1] = Evaluation of conversion rate to active form in BALB/c mouse plasma (Experimental Example 3); type: in vitro ADME; details: 0.2 μmol/L, 37° C.; for Conversion to Alvocidib in BALB/c mouse plasma: Examples up to 60 minutes, Comparative Examples up to 120 minutes; for Residual rate (%) of test compound: Mouse plasma
Summary of the method: (§1)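 LC-MS/MS (positive ESI) followed the parent and released Alvocidib during 37° C incubation of 0.2 μmol/L compound in human or BALB/c mouse plasma, sampled at 0/30/60 or 0/60/120 min. Remaining parent is expressed versus the 0-min peak; conversion versus a 0.2 μmol/L Alvocidib standard.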

[2] = Evaluation of conversion rate to active form in human plasma (Experimental Example 3); type: in vitro ADME; details: 0.2 μmol/L, 37° C.; for Residual rate (%) of test compound: Human plasma; for Conversion to Alvocidib in human plasma: Examples up to 60 minutes, Comparative Examples up to 120 minutes
Summary of the method: as §1

[3] = Stability evaluation of solution formulation (Experimental Example 2); type: physicochemical; details: for Stability / conversion to Alvocidib in solution formulation at pH 3: pH 3, 5° C.; for Stability / conversion to Alvocidib in solution formulation at pH 3 / Stability / conversion to Alvocidib in solution formulation at pH 4: up to 4 weeks; for Stability / conversion to Alvocidib in solution formulation at pH 4: pH 4, 5° C.
Description: For Example 1, Example 2, Example 5, Example 6, Comparative Example 13 and Comparative Example 14, the attrition rate of the test compound and the conversion rate of the test compound to Alvocidib in a solution formulation were calculated by the following method.
Example 1, Example 2, Example 5, Example 6, Comparative Example 13 and Comparative Example 14 were each added to buffer solutions adjusted to pH 3.0, 4.0 and 5.0, respectively, at a concentration of 0.1 mg/mL, and left at 5° C. After 0, 1, 2 and 4 weeks, the residual rates of the compounds of Example 1, Example 2, […], Comparative Example 13 and Comparative Example 14 and the production rate of Alvocidib were determined by HPLC.
The buffer solutions used at each pH are as follows. • pH 3.0: 5 mM tartrate buffer solution/10% sucrose solution (pH 3.0) • pH 4.0: 5 mM tartrate buffer solution/10% sucrose solution (pH 4.0) • pH 5.0: 5 mM tartrate buffer solution/10% sucrose solution (pH 5.0)
The measurement conditions for HPLC are as follows.
• column: Acquity UPLC BEH C18, 1.7 um, 50×2.1 mm • column temperature: 40° C. • mobile phase: • A: water containing 0.1% trifluoroacetic acid • B: acetonitrile • A/B (min): • 80/20(0)→75/25(3)→0/100(3.5)→0/100(4)→80/20(4.01)→80/20(5) • flow rate: 0.8 mL/min • detection: ultraviolet visible detector, measurement wavelength 254 nm • injection: 3 μL

[4] = solution formulation, pH3.0, 0 week
[5] = solution formulation, pH3.0, 1 week
[6] = solution formulation, pH3.0, 2 week
[7] = solution formulation, pH3.0, 4 week
[8] = solution formulation, pH4.0, 0 week
[9] = solution formulation, pH4.0, 1 week
[10] = solution formulation, pH4.0, 2 week
[11] = solution formulation, pH4.0, 4 week
[12] = solution formulation, pH5.0, 0 week
[13] = solution formulation, pH5.0, 1 week
[14] = solution formulation, pH5.0, 2 week
[15] = solution formulation, pH5.0, 4 week

Row | SMILES | Conversion to Alvocidib in BALB/c mouse plasma [1] | Residual rate (%) of test compound ([1]; 0 min) [%] | Residual rate (%) of test compound ([1]; 30 min) [%] | Residual rate (%) of test compound ([1]; 60 min) [%] | Residual rate (%) of test compound ([2]; 0 min) [%] | Residual rate (%) of test compound ([2]; 30 min) [%] | Residual rate (%) of test compound ([2]; 60 min) [%] | Conversion to Alvocidib in human plasma [2] | Stability / conversion to Alvocidib in solution formulation at pH 3 [3] | Stability / conversion to Alvocidib in solution formulation at pH 4 [3] | Production rate of Alvocidib [3, 4] [%] | Production rate of Alvocidib [3, 5] [%] | Production rate of Alvocidib [3, 6] [%] | Production rate of Alvocidib [3, 7] [%] | Production rate of Alvocidib [3, 8] [%] | Production rate of Alvocidib [3, 9] [%] | Production rate of Alvocidib [3, 10] [%] | Production rate of Alvocidib [3, 11] [%] | Production rate of Alvocidib [3, 12] [%] | Production rate of Alvocidib [3, 13] [%] | further results
1 | CCN(C[C@@H]1CCCCN1)C(=O)Oc1cc(O)c2c(=O)cc(-c3ccccc3Cl)oc2c1[C@H]1CCN(C)C[C@H]1O [Example 1, 2-(2-chlorophenyl)-5-hydroxy-8-[(3S,4R)-3-hydroxy-1-methylpiperidin-4-yl]-4-oxo-4H-1-benzopyran-7-yl ethyl{[(2S)-piperidin-2-yl]methyl}carbamate ditrifluoroacetate] | proceeded rapidly | 100 | 24 | 3 | 100 | 6 | 0 | proceeded rapidly | stable | stable | 0.0 | 0.0 | 0.1 | 0.1 | 0.0 | 0.1 | 0.2 | 0.4 | 0.1 | 1.2 | Residual rate ([3]; solution formulation pH3.0, 0 week, 5° C., 0.1 mg/mL): 99.2%; Residual rate ([3]; solution formulation pH3.0, 1 week, 5° C., 0.1 mg/mL): 99.2%; Residual rate ([3]; solution formulation pH3.0, 2 weeks, 5° C., 0.1 mg/mL): 99.0%; Residual rate ([3]; solution formulation pH3.0, 4 weeks, 5° C., 0.1 mg/mL): 99.0%; Residual rate ([3]; solution formulation pH4.0, 0 week, 5° C., 0.1 mg/mL): 99.5%; Residual rate ([3]; solution formulation pH4.0, 1 week, 5° C., 0.1 mg/mL): 99.3%; Residual rate ([3]; solution formulation pH4.0, 2 weeks, 5° C., 0.1 mg/mL): 99.1%; Residual rate ([3]; solution formulation pH4.0, 4 weeks, 5° C., 0.1 mg/mL): 99.1%; Residual rate ([3]; solution formulation pH5.0, 0 week, 5° C., 0.1 mg/mL): 99.4%; Residual rate ([3]; solution formulation pH5.0, 1 week, 5° C., 0.1 mg/mL): 98.5%; Residual rate ([3]; solution formulation pH5.0, 2 weeks, 5° C., 0.1 mg/mL): 97.6%; Residual rate ([3]; solution formulation pH5.0, 4 weeks, 5° C., 0.1 mg/mL): 96.5%; Production rate of Alvocidib [3, 14]: 1.9%; Production rate of Alvocidib [3, 15]: 3.2%
2 | CCN(C[C@H]1CCCCN1)C(=O)Oc1cc(O)c2c(=O)cc(-c3ccccc3Cl)oc2c1[C@H]1CCN(C)C[C@H]1O [Example 2, 2-(2-chlorophenyl)-5-hydroxy-8-[(3S,4R)-3-hydroxy-1-methylpiperidin-4-yl]-4-oxo-4H-1-benzopyran-7-yl ethyl{[(2R)-piperidin-2-yl]methyl}carbamate] | proceeded rapidly | 100 | 25 | 4 | 100 | 4 | 2 | proceeded rapidly | stable | stable | 0.0 | 0.0 | 0.0 | 0.1 | 0.0 | 0.1 | 0.2 | 0.3 | 0.1 | 1.1 | Residual rate [3, 4]: 96.5%; Residual rate [3, 5]: 96.5%; Residual rate [3, 6]: 96.4%; Residual rate [3, 7]: 96.5%; Residual rate [3, 8]: 96.4%; Residual rate [3, 9]: 96.5%; Residual rate [3, 10]: 96.4%; Residual rate [3, 11]: 96.4%; Residual rate [3, 12]: 96.4%; Residual rate [3, 13]: 95.5%; Production rate of Alvocidib [3, 14]: 1.9%; Residual rate [3, 14]: 94.5%; Production rate of Alvocidib [3, 15]: 3.1%; Residual rate [3, 15]: 93.0%
3 | CCCN(C[C@@H]1CCCCN1)C(=O)Oc1cc(O)c2c(=O)cc(-c3ccccc3Cl)oc2c1[C@H]1CCN(C)C[C@H]1O [Example 5, 2-(2-chlorophenyl)-5-hydroxy-8-[(3S,4R)-3-hydroxy-1-methylpiperidin-4-yl]-4-oxo-4H-1-benzopyran-7-yl {[(2S)-piperidin-2-yl]methyl}propylcarbamate] | proceeded rapidly | 100 | 36 | 8 | 100 | 1 | 0 | proceeded rapidly | stable | stable | 0.2 | 0.2 | 0.3 | 0.3 | 0.2 | 0.3 | 0.4 | 0.5 | 0.4 | 1.2 | Residual rate [3, 4]: 98.2%; Residual rate [3, 5]: 98.2%; Residual rate [3, 6]: 98.1%; Residual rate [3, 7]: 98.1%; Residual rate [3, 8]: 98.2%; Residual rate [3, 9]: 98.2%; Residual rate [3, 10]: 98.1%; Residual rate [3, 11]: 98.1%; Residual rate [3, 12]: 98.1%; Residual rate [3, 13]: 97.2%; Production rate of Alvocidib [3, 14]: 2.1%; Residual rate [3, 14]: 96.6%; Production rate of Alvocidib [3, 15]: 3.7%; Residual rate [3, 15]: 95.0%

— patent US12617779B2, “Self degradation-type CDK9 inhibitor prodrug and liposome encapsulating same” (Sumitomo Pharma Co., Ltd., priority 2021, dated 2026)
